In patent US9504685B2, “Method for treating a pulmonary hypertension condition” (Gilead Sciences, Inc., priority 2006, dated 2016):
Where two headings read alike, the source gives them in different places.

What was measured:
subjects with PAH [1] = assay: Example 1 (ARIES-2) Phase III trial, disposition, safety and tolerability; type: in vivo; details: for Subjects who died: 12 weeks
Description: Change from Week 0 to Week 12 was determined.

subjects with PAH [2] = details: for Subjects who died: 12 weeks
Description: All adverse effects (AEs) reported during the course of the study were reported and summaries of all AEs were prepared showing frequencies and percentages of: • (a) subjects with at least 1 AE; • (b) subjects with possibly or probably drug-related AEs; • (c) subjects with at least 1 serious AE (SAE); • (d) subjects with an AE leading to study discontinuation; and • (e) subjects who died. […]
The safety population was defined as all randomized subjects who received at least 1 dose of study drug. Subjects were considered as belonging to a treatment group according to the highest actual treatment dose received. Any subject who received 10 mg ambrisentan on any day was included in the 10 mg group for safety analyses in the entire study. Any subject who received 5 mg ambrisentan on any day and never received 10 mg ambrisentan on any day was included in the 5 mg group for safety analyses in the entire study. Otherwise, any subject who received only placebo was included in the placebo group for safety analyses in the study.

ETA receptor = molecular target: T1, ETA receptor (Homo sapiens, UniProt P25101); details: read-out: affinity for the ETA receptor; cited from earlier work
T1 sequence (P25101 21-427): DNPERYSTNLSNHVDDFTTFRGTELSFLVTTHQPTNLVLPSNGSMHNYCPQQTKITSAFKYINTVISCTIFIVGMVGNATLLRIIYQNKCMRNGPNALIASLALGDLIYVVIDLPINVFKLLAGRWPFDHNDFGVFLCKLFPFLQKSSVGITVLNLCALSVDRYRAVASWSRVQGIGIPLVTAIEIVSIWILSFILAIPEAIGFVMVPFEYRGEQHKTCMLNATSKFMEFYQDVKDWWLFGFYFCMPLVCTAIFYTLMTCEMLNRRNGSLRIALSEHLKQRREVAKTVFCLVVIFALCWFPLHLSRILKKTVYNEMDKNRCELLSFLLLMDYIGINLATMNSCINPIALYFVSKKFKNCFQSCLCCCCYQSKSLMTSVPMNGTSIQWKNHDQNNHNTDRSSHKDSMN

p450 = details: cited from earlier work
[3] = male subjects, 2.5 mg once daily
[4] = male subjects, 10 mg once daily

## COC(c1ccccc1)(c1ccccc1)[C@H](Oc1nc(C)cc(C)n1)C(=O)O [ambrisentan]
Subjects with PAH [1]; 2.5 mg once daily
  subjects who died during the study or within 30 days of the last dose: 3.1%
  Subjects who died: 2 (3.1) subjects (% of safety populati
Subjects with PAH [1]; 5 mg once daily
  subjects who died during the 12-week study: No subjects
  Subjects who died: 0 (0.0) subjects (% of safety populati
Subjects with PAH [1]; combined 2.5 mg and 5 mg groups
  Subjects who died: 2 (1.6) subjects (% of safety populati
Subjects with PAH [1]; in vivo
  male fertility hormones and serial semen samples: did not suggest that ambrisentan was associated with an adverse effect on male reproductive potential
  mean changes from baseline at Week 12 for serum ALT and AST: no notable mean changes
  mean total bilirubin and mean alkaline phosphatase: notable decrease
  subjects who developed elevated serum aminotransferase concentrations >3.0×ULN: None
Subjects with PAH [1]; [3]
  change in testosterone concentration over the 12-week study: -0.09 ± 4.595 nmol/L
  change over baseline in FSH concentration at Week 12: +0.58 IU/liter
Subjects with PAH [1]; male subjects, 5 mg once daily
  change in testosterone concentration over the 12-week study: -2.61 ± 6.962 nmol/L
Subjects with PAH [2]; 5 mg once daily
  subjects who died during the study or within 30 days of the last dose: 1.5%
  Subjects who died: 1 (1.5) subjects (% of safety populati
Subjects with PAH [2]; 10 mg once daily
  subjects who died during the study or within 30 days of the last dose: 1.5%
  Subjects who died: 1 (1.5) subjects (% of safety populati
Subjects with PAH [2]; combined 5 mg and 10 mg groups
  Subjects who died: 2 (1.5) subjects (% of safety populati
Subjects with PAH [2]; in vivo
  effect on PT, INR or weekly warfarin-type anticoagulant dose: no effect
  male fertility hormones and serial semen samples: did not suggest that ambrisentan was associated with an adverse effect on male reproductive potential
  mean changes from baseline at Week 12 for serum ALT and AST: no notable mean changes
  subjects who developed elevated serum aminotransferase concentrations >3×ULN: None
Subjects with PAH [2]; male subjects, 5 mg once daily
  change from baseline in testosterone concentration at Week 12: -0.099 ± 3.48 nmol/L
Subjects with PAH [2]; [4]
  change from baseline in testosterone concentration at Week 12: -0.099 ± 3.48 nmol/L
  change over baseline in FSH concentration at Week 12: +1.83 IU/liter
ETA receptor
  Ki: ~0.012 nM
p450
  drug interactions (p450 induction or inhibition): no p450 induction or inhibition
